According to patent publication US7994202B2, “Bicyclic nitrogen-containing heterocyclic compounds” (Asahi Kasei Pharma Corporation, priority 2008, dated 2011):

Test system: female SD rat
Assay: Micturition interval prolongation in an anesthetized rat - II (0.2% acetic acid infusion to bladder)
Assay type: in vivo
Conditions: urethane-anesthetized female SD rat, 0.2% acetic acid bladder infusion, administered to the left femoral vein
Procedure: Activity of prolonging micturition interval in an anesthetized rat was determined with reference to the method established by Maggi, et al. (Eur. J. Pharmacol. 145, p. 105-112 (1988)). Specifically, a female SD rat was anesthetized with urethane and fixed in a supine position, and a catheter was inserted through an external urethral opening. Using a three-way stopcock, it was connected to a pressure transducer and a syringe pump. While infusing physiological saline including 0.2% acetic acid to the bladder at constant rate, cystometrogram was recorded. After confirming stabilized micturition interval, micturition threshold pressure and maximal voiding pressure, a solvent or the compound to be tested was administered to the left femoral vein and an activity of prolonging micturition interval was determined as an efficacy of the drug compound. Each group included five animals.

Question: With O=C(O)c1csc(-n2nc(-c3ccccc3)c3ccccc32)n1 [Exp.2, 2-(3-Phenyl-1H-indazol-1-yl)thiazole-4-carboxylic acid] as the molecule, how does the Voiding interval-extending action read?
Answer: Its Voiding interval-extending action is 30.0%.
